{"source": "paper PMC7516806", "about": "“Hybrid Antimicrobial Peptide Targeting Staphylococcus aureus and Displaying Anti-infective Activity in a Murine Model” (Frontiers in Microbiology, 2020)", "key": {"S. aureus 29213": {"system": "S. aureus 29213", "assay": "MIC, modified microtiter dilution", "format": "cell-based, Staphylococcus aureus", "conditions": "MHB, 2–7 × 10^5 CFU/ml, 37°C, 24 h, no turbidity, at least three independent repeats", "description": "(§1) The experiment was repeated at least three times independently."}, "S. aureus 25923": {"system": "S. aureus 25923", "assay": "MIC, modified microtiter dilution", "format": "cell-based, Staphylococcus aureus", "conditions": "MHB, 2–7 × 10^5 CFU/ml, 37°C, 24 h, no turbidity, at least three independent repeats", "description": "as §1"}, "[1]": {"system": "Staphylococcus aureus 29213", "assay": "Bacterial resistance development, serial passaging", "format": "cell-based", "conditions": "serial passage at sub-MIC for 15 days", "description": "Staphylococcus aureus 29213 was employed to assess the development of resistance by the serial passaging method, as previously described ([Lyu et al., 2017]). Minimum inhibitory concentration testing was first conducted for all of the compounds to be tested, as described above. S. aureus was harvested from 96-well plates of sub-MIC levels, diluted in MHB to a concentration of 2–7 × 10^5 CFU/mL, and then subjected to MIC determination for up to 15 days. The change in MIC values determines the development of antibiotic resistance in S. aureus."}, "S. aureus ATCC 29213": {"system": "S. aureus ATCC 29213", "assay": "Time-dependent killing kinetics", "format": "cell-based, Staphylococcus aureus", "conditions": "six independent trials", "description": "The logarithmic phase S. aureus ATCC 29213 cells were harvested by centrifugation at 1000 × g for 5 min, washed twice with PBS, and diluted to 2–7 × 10^5 CFU/mL. S. aureus was treated with AMPs at various concentrations, including 0.125, 0.25, 0.5, 1, and 2 × MIC. At various time intervals (5 s, 10 s, 30 s, 1 min, 5 min, 10 min, and 30 min), 50 μL of bacterial solution was diluted and plated on MHA plates. Bacterial colonies were counted after 24 h of incubation at 37°C. The results were carried out in six independent trials."}, "MRSA 43300": {"system": "MRSA 43300", "format": "cell-based, Staphylococcus aureus", "conditions": "MHB, 2–7 × 10^5 CFU/ml, 37°C, 24 h, no turbidity, at least three independent repeats", "description": "as §1"}, "RAW 264.7 cells": {"system": "RAW 264.7 cells", "assay": "Cytotoxicity, MTT dye reduction assay", "format": "cell-based, murine", "description": "The cytotoxicity of peptides was determined by healthy human erythrocytes and the murine macrophage cell line RAW 264.7 via a hemolysis assay and MTT dye reduction assay, respectively ([Wang et al., 2018]). In the hemolysis assay, fresh hRBCs from healthy people were centrifuged for 5 min at 1,000 × g and then washed three times with PBS (pH = 7.2). The 100 μL erythrocyte suspension and peptides were incubated for 1.5 h in an incubator at 37°C. The 96-well plates were centrifuged at 1,000 × g for 5 min, and the supernatants were carefully aspirated. The absorbance at 570 nm indicated the leakage of hemoglobin. The hRBCs in the PBS sample was used as the negative control, and 0.1% Triton X-100 addition served as the positive control. In the MTT dye reduction assay, 1.0–2.0 × 10^5 cells were plated in 96-well plates and then treated with various concentrations of peptides for 4 h at 37°C in a 5% CO2 incubator. Subsequently, 50 μL of MTT was added to the plated cells at a final concentration of 0.5 mg/mL and incubated for 4 h. Then, the cells were centrifuged at 1000 × g for 5 min, and the supernatants were discarded. Formazan crystals were dissolved in 150 μL of DMSO, and the OD570 nm was measured using a microplate reader (TECAN GENios F129004; TECAN, Austria). The experiment was repeated three times independently."}, "[2]": {"system": "Staphylococcus aureus 29213", "assay": "Propidium iodide uptake assay", "format": "cell-based", "conditions": "0.5 × MIC, MIC and 2 × MIC; 10 μg/mL PI; ex 535 nm, em 617 nm", "description": "Staphylococcus aureus 29213 was washed three times with buffer (5 mM HEPES, 5 mM glucose, pH 7.4) after the bacterium grew to the mid-log phase and then diluted to an OD600 = 0.05. Propidium iodide was then added to the final concentration of 10 μg/mL and incubated for 30 min at 4°C. The peptides were added to 12-well plates, which were filled with 2 mL of the cell suspension. An F-4500 fluorescence spectrophotometer (Hitachi, Japan) was employed to measure the fluorescence value at an excitation wavelength of 535 nm and an emission wavelength of 617 nm. Maximal augmentation was monitored, and the fluorescence of the mixture of bacteria and dye served as the blank control ([Morita et al., 2015])."}, "TNF-α": {"system": "TNF-α", "assay": "Cytokine ELISA in infected skin", "format": "in vivo, ICR mice", "conditions": "24 h after treatment, P < 0.05", "description": "(§2) To assess the antimicrobial activity of the peptide in vivo, a mouse model of subcutaneous infection was used ([Huang et al., 2011a]; [Omolo et al., 2017]). Female Institute for Cancer Research (ICR) mice (SPF, 20–25 g) were purchased from WeiTonglihua Co., Ltd. (Beijing, China), with eight animals per group. The mice were shaved on their backs and disinfected. S. aureus 29213 (100 μL) at a concentration of 1 × 10^8 CFU/mL was injected into the superficial skin of the mice. The mice were divided into four groups (n = 4), as follows: S. aureus + saline, S. aureus + S2 (80× MIC, 100 μL), S. aureus + vancomycin (Van) (80× MIC, 100 μL), and saline. S2, vancomycin, and saline were injected at the same site 1 h after infection. The mice were monitored over 24 h in an environmentally controlled room at 25 ± 1°C and 55 ± 5% relative humidity with a 12 h light/dark cycle.\n(§3) The mice were treated as described above. Skin samples were treated according to the manufacturer’s instructions. The levels of tumor necrosis factor-alpha (TNF-α), interleukin-6 (IL-6), and granulocyte-macrophage colony-stimulating factor (GM-CSF) in infected skin were measured using enzyme-linked immunosorbent assay (ELISA) kits following the manufacturer’s instructions."}, "GM-CSF": {"system": "GM-CSF", "assay": "Cytokine ELISA in infected skin", "format": "in vivo, ICR mice", "conditions": "24 h after treatment, P < 0.05", "description": "as §2, §3"}, "IL-6": {"system": "IL-6", "assay": "Cytokine ELISA in infected skin", "format": "in vivo, ICR mice", "conditions": "24 h after treatment, P < 0.05", "description": "as §2, §3"}, "mouse skin": {"system": "mouse skin", "assay": "Skin toxicity in vivo, TUNEL assay", "set-up": "species or system ICR mice", "conditions": "100 μL at 80 × MIC injected into skin, 24 h", "description": "Anesthetized mice were shaved on their backs and disinfected. A total of 100 μL of S2 (80 × MIC) was injected into the skin. Equal volumes of saline and 100% DMSO were used as the negative and positive controls, respectively. The skin was removed from the injection sites for tissue processing after 24 h. OCT-embedded slides were stained using the DeadEnd^TM Fluorometric TUNEL System for the detection of apoptotic cells and counterstained with 4,6-diamidino-2-phenylindole (DAPI). Photographs were taken using a microscope ([Huang et al., 2011a])."}}, "note": "Positions of bridges follow the written chain, without caps; N, C: chain ends. Residues, ends and D or L forms follow the SMILES beside them.", "data": [{"smiles": "CC(C)C[C@H](NC(=O)[C@H](CC(C)C)NC(=O)[C@H](Cc1c[nH]c2ccccc12)NC(=O)[C@H](Cc1c[nH]c2ccccc12)NC(=O)[C@H](Cc1c[nH]c2ccccc12)NC(=O)[C@H](CCCNC(=N)N)NC(=O)[C@@H]1CSSC[C@H](N)C(=O)N[C@@H](C)C(=O)N[C@@H](CO)C(=O)N[C@@H](Cc2ccc(O)cc2)C(=O)N[C@@H](Cc2ccccc2)C(=O)N1)C(N)=O", "note": "[Peptide S2] (H-CASYFCRWWWLL-NH2; disulfide 1-6; N-terminus assumed)", "values": [{"measurement": "MIC S. aureus 29213", "setting": "S. aureus 29213", "result": 8, "unit": "µM"}, {"measurement": "MIC S. aureus 25923", "setting": "S. aureus 25923", "result": 8, "unit": "µM"}, {"measurement": "change in MIC value, 15th day versus first day", "setting": "[1]", "result": "remained almost constant"}, {"measurement": "bacterial reduction in S. aureus", "setting": "S. aureus ATCC 29213; 0.5 × MIC, after 5 s of exposure, PBS, 2–7 × 10^5 CFU/mL", "result": 2, "unit": "log10"}, {"measurement": "time of peptide exposure for 100% bacterial killing", "setting": "S. aureus ATCC 29213; at 2 × MIC", "result": 30, "unit": "s"}, {"measurement": "time of peptide exposure for 100% bacterial killing", "setting": "S. aureus ATCC 29213; at MIC", "result": 60, "unit": "s"}, {"measurement": "MIC MRSA 43300", "setting": "MRSA 43300", "result": 8, "unit": "µM"}, {"measurement": "killing activity against RAW 264.7 cells", "setting": "RAW 264.7 cells", "result": "no killing activity against RAW 264.7 cells"}, {"measurement": "RAW 264.7 cell survival rate", "setting": "RAW 264.7 cells; highest concentration of 128 μM, 4 h, three independent repeats", "result": 105, "unit": "%"}, {"measurement": "PI uptake (PI fluorescence)", "setting": "[2]", "result": "rapidly disrupted the bacterial membrane and caused PI uptake"}, {"measurement": "TNF-α generation in infected skin", "setting": "TNF-α", "result": "suppressed"}, {"measurement": "GM-CSF levels in infected skin versus control group and Van group", "setting": "GM-CSF", "result": "significantly higher"}, {"measurement": "IL-6 generation in infected skin", "setting": "IL-6", "result": "suppressed"}, {"measurement": "apoptotic cells in mouse skin (TUNEL)", "setting": "mouse skin", "result": "no apparent epidermal apoptosis"}]}]}
